These results are taken from ChEMBL document CHEMBL1131097, “2-Deoxy derivative is a partial agonist of the intracellular messenger inositol 3,4,5,6-tetrakisphosphate in the epithelial cell line T84” (J Med Chem, 1998).

The test system of test [1] is T84. The test is described as follows: Inhibition of calcium-mediated chloride secretion in the intestinal epithelial cell line T84 by measuring short circuit current at 400 uM concentration; Maximum. As to conditions: Homo sapiens. It counts as functional, cell-based.
In test [2] the test system is T84. The experiment in a line: Inhibition of calcium-mediated chloride secretion in the intestinal epithelial cell line T84 by measuring short circuit current at 200 uM concentration; Ineffective. To be noted: Homo sapiens. It counts as functional, cell-based.

Turning to `CCCCO[C@@H]1C[C@H](OP(=O)(OCOC(C)=O)OCOC(C)=O)[C@@H](OP(=O)(OCOC(C)=O)OCOC(C)=O)[C@H](OP(=O)(OCOC(C)=O)OCOC(C)=O)[C@H]1OP(=O)(OCOC(C)=O)OCOC(C)=O` (racemic), the inhibition result in test [1] and in test [2] was “Ineffective” throughout.
